Data reported in paper PMC12017303 (Science Advances, 2025).
≈ marks a conversion by molar mass, not a printed value.

Tests used:
[1] = format: physicochemical; conditions: 10 μM
[2] = system: HCoV Alpha 229E; assay: organism not typed; format: cell-based, HCoV 229E; conditions: Huh-7
[3] = physchem; conditions: pH 7.4, aqueous buffer, kinetic from dmso stock
[4] = system: SARS-CoV-2 WA.1 (icSARS-CoV-2-mNG) in A549-ACE2^h; assay: microbe, parasite or virus in culture; format: cell-based; conditions: Severe acute respiratory syndrome coronavirus 2, read-out: Viral replication in A549-ACE2^h EC50: WA.1
[5] = system: SARS-CoV Urbani; assay: microbe, parasite or virus in culture; format: cell-based; conditions: Severe acute respiratory syndrome coronavirus, Vero C1008
[6] = system: SARS-CoV-2 XBB.1.16 in A549-ACE2^h; assay: microbe, parasite or virus in culture; format: cell-based; conditions: Severe acute respiratory syndrome coronavirus 2, read-out: Viral replication in A549-ACE2^h EC50: XBB.1.16
[7] = system: human cytochrome P450 (CYP) isoforms; conditions: 10 μM
[8] = system: SARS-CoV-2 EG.5.1 in A549-ACE2^h; assay: microbe, parasite or virus in culture; format: cell-based; conditions: Severe acute respiratory syndrome coronavirus 2, read-out: Viral replication in A549-ACE2^h EC50: EG.5.1
[9] = system: SARS-CoV-2 BA.2 (omicron); assay: microbe, parasite or virus in culture; format: cell-based; conditions: Severe acute respiratory syndrome coronavirus 2, Vero C1008
[10] = system: P-gp (MDR1); assay: in vitro; conditions: dog; for Papp B→A: MDCK-MDR1; for Papp A→B: MDCK-MDR1, MDCK AB
[11] = target: SARS-CoV-1 M^Pro (Severe acute respiratory syndrome coronavirus, UniProt P0C6X7); assay: biochemical
[12] = system: SARS-CoV-2 XBB.1.5 in A549-ACE2^h; assay: microbe, parasite or virus in culture; format: cell-based; conditions: Severe acute respiratory syndrome coronavirus 2, read-out: Viral replication in A549-ACE2^h EC50: XBB.1.5
[13] = in vitro; conditions: plasma
[14] = target: SARS-CoV-2 M^Pro (Severe acute respiratory syndrome coronavirus 2, UniProt P0DTD1); format: biochemical
[15] = system: panel of 40 receptors, ion channels (including the hERG channel), and serine and cysteine proteases
[16] = in vivo; conditions: male, CD-1, mouse; for bioavailability: F; for AUC(0-t): AUClast; for Vd: Vss
[17] = male, CD-1, mouse, in vivo; for AUClast / Plasma T½: po, 50 mg/kg
[18] = system: MERS-CoV EMC; assay: microbe, parasite or virus in culture; format: cell-based; conditions: Middle East respiratory syndrome-related coronavirus, Vero C1008
[19] = system: SARS-CoV-2 WA.1 replicon in Vero ACE2 TMPRSS2; assay: microbe, parasite or virus in culture; format: cell-based; conditions: Severe acute respiratory syndrome coronavirus 2, Vero, read-out: Replicon replication in Vero ACE2 TMPRSS2 EC50: WA.1
[20] = human, pH 7.4
[21] = mouse, pH 7.4
[22] = system: SARS-CoV-2 BA.2.86.1 replicon in Vero ACE2 TMPRSS2; assay: microbe, parasite or virus in culture; format: cell-based; conditions: Severe acute respiratory syndrome coronavirus 2, Vero, read-out: Replicon replication in Vero ACE2 TMPRSS2 EC50: BA.2.86.1
[23] = system: HCoV Beta OC43; assay: microbe, parasite or virus in culture; format: cell-based; conditions: Betacoronavirus 1, OC43
[24] = target: SARS-CoV-2 M^Pro (Cys^145) (Severe acute respiratory syndrome coronavirus 2, UniProt P0DTD1); format: binding
[25] = in vitro; conditions: mouse, microsomes, pH 7.4
[26] = target: cathepsin L2 (Homo sapiens, UniProt O60911)
Sequence of cathepsin L2 (O60911 114-334): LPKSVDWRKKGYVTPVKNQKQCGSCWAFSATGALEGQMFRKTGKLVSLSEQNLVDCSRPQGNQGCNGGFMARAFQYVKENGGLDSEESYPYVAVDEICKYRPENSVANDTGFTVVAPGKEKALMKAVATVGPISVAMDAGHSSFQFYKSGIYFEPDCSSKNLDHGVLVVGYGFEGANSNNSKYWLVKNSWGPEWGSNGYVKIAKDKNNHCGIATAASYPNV

[27] = in vitro; conditions: human
[28] = in vitro; conditions: human, microsomes, pH 7.4
[29] = in vitro; conditions: PAMPA, pH 7.4

For `C#CCn1c(-c2ccc(Cl)c(Cl)c2)c(-n2nnc3cc(F)c(F)cc32)c(=O)n(-c2cncc3ccccc23)c1=O` [AVI-4694], the “particle formation by dynamic light scattering (DLS)” value [1] was “formed particles”, the EC50 [2] was > 1.6 µM and the EC90 [2] was > 1.6 µM. It also gave a solubility [3] of 2.4 µM (≈ 1.38 µg/mL), an EC50 [4] of 0.071 µM and an EC50 [5] of 0.052 µM. The EC90 [5] was 0.091 µM, the EC50 [6] was 0.00032 µM and the “inhibition of several CYP isoforms” value [7] was > 50%. The EC50 [8] was 0.00022 µM, the EC50 [9] was 0.05 µM and the EC90 [9] was 0.045 µM. The Papp B→A [10] was 138 nm/s, the Papp A→B [10] was 82 nm/s and the IC50 [11] was 0.066 µM. For the same compound, the EC50 [12] was 0.0003 µM, the fraction unbound ([13]; pH 7.4, PPB) was 0.003 and the fraction unbound ([13]; pH 7.4, plasma protein binding (PPB)) was < 0.01. The “M^Pro activity after dialysis” value [14] was “activity was not regained”, the “off-target activity across panel, result in words” value [15] was “low-micromolar inhibition of nine enzymes/receptors in the panel” and the bioavailability [16] was 63.5%. For the same compound, the MRT inf ([16]; iv, 10 mg/kg) was 2.6 h, the clearance ([16]; iv, 10 mg/kg) was 0.562 L/h/kg and the half-life ([16]; iv, 10 mg/kg) was 1.72 h. The AUC(0-inf) ([16]; iv, 10 mg/kg, AUCINF) was 17.8 µg·h/mL, the AUC(0-t) ([16]; iv, 10 mg/kg) was 17.3 µg·h/mL and the Vd ([16]; iv, 10 mg/kg) was 1.46 L/kg. It also gave a half-life ([16]; po, 50 mg/kg) of 1.87 h, an AUC(0-inf) ([16]; po, 50 mg/kg, AUCINF) of 56.5 µg·h/mL and an AUC(0-inf) ([16]; po, 50 mg/kg, AUCinf) of 56.5 µg·h/mL. The AUC(0-t) ([16]; po, 50 mg/kg) was 56.5 µg·h/mL, the Cmax ([16]; po, 50 mg/kg, CMax) was 5.77 µg/mL and the Cmax ([16]; po, 50 mg/kg, Cmax) was 5.77 µg/mL. The Tmax ([16]; po, 50 mg/kg, TMax) was 4 h, the Tmax ([16]; po, 50 mg/kg, Tmax) was 4 h and the “Mouse F” value [17] was 64. For the same compound, the AUClast [17] was 56.5 µg·h/mL, the “Plasma T½” value [17] was 1.87 h and the EC50 [18] was 0.045 µM. The EC50 [19] was 0.013 µM, the “HLM T1/2” value [20] was > 2 h and the “MLM T1/2” value [21] was > 2 h. It also gave an EC50 [22] of 0.012 µM, an EC50 [23] of 0.055 µM and an EC90 [23] of 0.061 µM. For the same compound, the “covalent adduct by whole protein MS” value [24] was “mass shifts consistent with modification at a single site” and the half-life [25] was 1.6 h.

For `O=c1[nH]c(-c2ccc(Cl)c(Cl)c2)c(-n2nnc3cc(F)c(F)cc32)c(=O)n1-c1cncc2ccccc12` [AVI-4673], the solubility [3] was 475 µM (≈ 255 µg/mL), the EC50 [4] was 0.19 µM and the “cathepsin L2 inhibition, result in words” value [26] was “low-micromolar inhibitor”. The EC50 [6] was 0.36 µM, the CC50 [27] was > 100 µM and the viability at 100 µM [27] was 94.4%. For the same compound, the EC50 [8] was 0.23 µM, the half-life [28] was > 2 h and the Papp B→A [10] was 184 nm/s. For the same compound, the Papp A→B [10] was 21 nm/s, the EC50 [12] was 0.15 µM and the fraction unbound ([13]; pH 7.4, PPB) was 0.005. The bioavailability [16] was 71.6%, the MRT inf ([16]; iv, 10 mg/kg) was 1.53 h and the clearance ([16]; iv, 10 mg/kg) was 3.1 L/h/kg. For the same compound, the half-life ([16]; iv, 10 mg/kg) was 2.19 h, the AUC(0-inf) ([16]; iv, 10 mg/kg, AUCINF) was 3.22 µg·h/mL and the AUC(0-t) ([16]; iv, 10 mg/kg) was 3.1 µg·h/mL. The Vd ([16]; iv, 10 mg/kg) was 4.75 L/kg, the half-life ([16]; po, 50 mg/kg) was 2.12 h and the AUC(0-inf) ([16]; po, 50 mg/kg, AUCINF) was 11.5 µg·h/mL. The AUC(0-inf) ([16]; po, 50 mg/kg, AUCinf) was 11.5 µg·h/mL, the AUC(0-t) ([16]; po, 50 mg/kg) was 11.5 µg·h/mL and the Cmax ([16]; po, 50 mg/kg, CMax) was 2.42 µg/mL. It also gave a Cmax ([16]; po, 50 mg/kg, Cmax) of 2.42 µg/mL, a Tmax ([16]; po, 50 mg/kg, TMax) of 4 h and a Tmax ([16]; po, 50 mg/kg, Tmax) of 2 h. The “Mouse F” value [17] was 76, the AUClast [17] was 11.5 µg·h/mL and the “Plasma T½” value [17] was 2.12 h. For the same compound, the EC50 [19] was 0.94 µM, the Papp [29] was 49.9 nm/s and the EC50 [22] was 0.28 µM. For the same compound, the half-life [25] was > 2 h.
